Activity calls are given as the source filed them. The rule behind the calls is not given here.
Experiments:
[1] = test system: Oryza sativa; assay: Induction of disease resistant in three-leaf stage of Oryza sativa (rice) plant against Xanthomonas oryzae pv. oryzae-induced leaf blight at 0.05 to 5 mg/pot after 7 days; type: functional, organism-based
[2] = test system: Oryza sativa; assay: Induction of PBZ1 gene expression in three-leaf stage of Oryza sativa (rice) plant leaf after 5 days by Northern blot analysis; type: functional, organism-based
[3] = test system: Xanthomonas oryzae pv. oryzae; assay: Antibacterial activity against Xanthomonas oryzae pv. oryzae up to 1 mg/ml after 48 hr; type: functional, organism-based
[4] = test system: Oryza sativa; assay: Induction of disease resistant in three-leaf stage of Oryza sativa (rice) plant against Xanthomonas oryzae pv. oryzae-induced leaf blight after 7 days; type: functional, organism-based
[5] = test system: Oryza sativa; assay: Induction of disease resistant in three-leaf stage of Oryza sativa (rice) plant against Xanthomonas oryzae pv. oryzae-induced leaf blight at 0.05 to 0.5 mg/pot after 7 days; type: functional, organism-based
[6] = test system: Oryza sativa; assay: Induction of disease resistant in three-leaf stage of Oryza sativa (rice) plant against Xanthomonas oryzae pv. oryzae-induced leaf blight at 5 mg/pot after 7 days; type: functional

SMILES	Activity [1]	Activity [2]	Activity [3]	Activity [4]	Activity [5]	Activity [6] [%]
C=CCOC1=NS(=O)(=O)c2ccccc21	Active	Dose-dependent effect				
Cn1nc(Cl)cc1C(=O)O [3-CHLORO-1-METHYL-1H-PYRAZOLE-5-CARBOXYLIC ACID]		Dose-dependent effect	inactive	Dose-dependent effect	Active	99.5
CSC(=O)c1cccc2nnsc12	Active	Dose-dependent effect				
N#CCNC(=O)c1ccnc(Cl)c1		Dose-dependent effect				

Reference: ChEMBL document CHEMBL3045433, “Induction of Resistance against Rice Bacterial Leaf Blight by 3-Chloro-1-methyl-1H-pyrazole-5-carboxylic Acid” (2005)
